US11814352B2, “Salts formed by 2-(1-acyloxy-n-pentyl) benzoic acid and basic amino acid or aminoguanidine, and preparation method and application thereof” (JIANGSU KANION PHARMACEUTICAL CO., LTD., priority 2018, dated 2023)
Where two headings read alike, the source gives them in different places. Marks after values point to notes of the source that are not given here.

Tests used:
[1] = tested on: AA induced platelet aggregation; test: In vitro anti-platelet aggregation, AA induced (turbidimetry, PRP); type: cell-based, rabbits
Description: (§1) The animals were used for experiments after 1 week.
(§2) The common carotid artery was separated, and a polyethylene tube was inserted into the common carotid artery to collect blood. […] The upper beige suspension was pipetted to obtain the platelet-rich plasma (PRP). […] The PRP was adjusted with the PPP to make the platelet count at 1×10^8/mL.
(§3) 260 μL of platelet-rich plasma (PRP) was added into a turbidimetric tube. Then 10 μL of test compounds with different concentrations, positive control drugs or normal saline were separately added, and the plasma was incubated at 37° C. for 5 min. Then 30 μL of inducers were added in sequence. The final concentration of an inducer ADP is 10 μM, and the final concentration of an inducer AA is 1 mM. […] Inhibition rate of platelet aggregation (IRPA)=(platelet aggregation rate of the control group−platelet aggregation rate of the experimental group)/platelet aggregation rate of the control group×100%.

[2] = tested on: ADP induced platelet aggregation; test: In vitro anti-platelet aggregation, ADP induced (turbidimetry, PRP); type: cell-based, rabbits
Description: as §1, §2, §3

MCAO rats = test: Cerebral infarction, cerebral edema and nerve function of rats with focal cerebral ischemia (MCAO); type: in vivo, SD rats; conditions: for inhibition at 10 mg/kg/day: Rattus norvegicus
Description: The total number of the animals was 88.
Sham operation group: equal volume of normal saline (containing 1% DMSO) (iv. 3 days), TTC, cerebral edema and neurological function score (n=8); […]
The middle cerebral arteries of the rats were blocked by a suture-occluded method, and reperfused after 2 h. […] All drugs were formulated into normal saline solutions containing 1% DMSO for administration, and the duration of administration was controlled at approximately 1 min. […] 2 h after the last administration, the neurological defect scores were firstly obtained, and then the rats of each group were sacrificed. The whole brains were taken out and weighed (wet weight), TTC stained, and dried to determine the effects of the compounds on cerebral infarction and cerebral edema.
2 h after the last administration, the neurological defects of the animals were graded and scored by the Longa's method.
After the neurobehavioral examination was completed, four coronal incisions were made on the whole brains of the rats on the optic chiasma and 2 mm anteroposterior positions of the optic chiasma. After the whole brains were cut into five slices, the brain slices were quickly placed in 5 ml of phosphate buffer solution containing 2% TTC, and incubated at 37° C. in the dark. In the incubation process, the brain slices were turned once every 5 min. After 10 min of incubation, the brain slices were taken out and pictures were taken with a digital camera (Olympus C-4000, Japan).
The calculation formula of brain water content is as follows: Water content of brain tissue (%)=(wet weight of brain tissue−dry weight of brain tissue)/wet weight of brain tissue×100%; Cerebral edema rate (%)=water content of brain tissue of each group (%)−water content of brain tissue of sham operation group (%)/water content of brain tissue of sham operation group (%)×100%; Inhibition rate of cerebral edema (%)=(rate of cerebral edema of model group (%)−rate of cerebral edema of administration group (%))/rate of cerebral edema of model group (%)×100%.

[3] = tested on: arteriovenous bypass thrombosis in rats; test: Effect on arteriovenous bypass thrombosis in rats; type: in vivo, SD rats; conditions: 10 mg/kg/day tail vein 7 days; for Dry weight of thrombus / Wet weight of thrombus: 2 h after last dose; for inhibition at 10 mg/kg/day: Rattus norvegicus, 168 h
Description: Male SD rats, weighing 250-280 g, purchased from Beijing Vital River Laboratory Animal Technology Co., Ltd., raised in an SPF breeding environment with indoor temperature controlled at 23±2° C., and allowed to freely eat and drink. The total number of the animals is 64.
Model group: injected with the same volume of normal saline (containing 1% DMSO) through the tail vein, and administered continuously for 7 days. The test was started 2 h after the last dose (n=8).
The dose of all drugs was 10 mg/kg/day. The drugs were formulated into normal saline solutions containing 1% DMSO, and injected through the tail vein for 7 consecutive days. The test was started 2 hours after the last dose (n=8).
The rats were intraperitoneally injected with a 3% pentobarbital sodium solution (30 mg/kg). After anesthesia, the rats were immobilized in the supine position, and a median cervical incision was made to separate the right common carotid artery and left external jugular vein. A 6 cm long suture was put in the middle of a polyethylene tube (the suture needs to be weighed before being put in the tube), and the polyethylene tube was filled with heparin saline (50 U/mL). The polyethylene tube was inserted into the separated blood vessels to make the artery and vein form a loop. After 15 min of circulation of the blood flow, the suture was taken out, and the suture with thrombus was collected and weighed immediately. Then, after the suture was dried at room temperature for 24 h, the dry weight was determined. The total weight minus the weight of the suture was the wet weight of the thrombus, and the dry weight minus the weight of the suture was the dry weight of the thrombus.

[4] = read-out: IC50 AA (1 mM), rabbit PRP, inducer AA 1 mM, 37° C.
[5] = read-out: IC50 ADP (10 μM), rabbit PRP, inducer ADP 10 μM, 37° C.
[6] = iv 2 h after the beginning of reperfusion, 5 mg/kg
[7] = iv 2 h after the beginning of reperfusion, 10 mg/kg
[8] = iv 2 h after the beginning of reperfusion, 20 mg/kg
[9] = iv at the beginning of reperfusion, 5 mg/kg
[10] = iv at the beginning of reperfusion, 10 mg/kg
[11] = iv at the beginning of reperfusion, 20 mg/kg
[12] = MCAO rats, 10 mg/kg/day iv 3 days (combinations equimolar), first dose 2 h after reperfusion
[13] = Oryctolagus cuniculus, Platelet, read-out: IC50 AA (1 mM), rabbit PRP, inducer AA 1 mM, 37° C.
[14] = Oryctolagus cuniculus, Platelet, read-out: IC50 ADP (10 μM), rabbit PRP, inducer ADP 10 μM, 37° C.
[15] = MCAO rats, 10 mg/kg/day iv 3 days (combinations equimolar), first dose 2 h after reperfusion, read-out: Inhibition rate of cerebral edema
[16] = MCAO rats, 10 mg/kg/day iv 3 days (combinations equimolar), first dose 2 h after reperfusion, read-out: Inhibition rate of infarct volume
[17] = vs model group, read-out: Inhibition rate (dry weight of thrombus)
[18] = vs model group, read-out: Inhibition rate (wet weight of thrombus)

Compound `CCCCC(OC(C)=O)c1ccccc1C(=O)O` (racemic) [(R/S)-APB, (R/S)-2-(1-acetoxy-n-pentyl)benzoic acid] has an IC50 [1, 4] of 470 ± 40 µM and an IC50 [2, 5] of 810 ± 40 µM.

`CCCCC(O)c1ccccc1C(=O)O.N=C(N)NCCC[C@H](N)C(=O)O` (racemic) [AHPB, L-Arginine (R/S)-2-(1-Hydroxy-n-Pentyl) Benzoate] was tested, and the Cerebral edema (MCAO rats; [6]) was 6.50 ± 1.86%, the Infarct volume (MCAO rats; [6]) was 37.54 ± 6.94% and the “Inhibition rate of cerebral edema” value (MCAO rats; [6]) was 31.12%. For the same compound, the “Inhibition rate of infarct volume” value (MCAO rats; [6]) was 24.34%, the Cerebral edema (MCAO rats; [7]) was 3.03 ± 2.87% and the Infarct volume (MCAO rats; [7]) was 25.70 ± 4.75%. The “Inhibition rate of cerebral edema” value (MCAO rats; [7]) was 67.94%, the “Inhibition rate of infarct volume” value (MCAO rats; [7]) was 48.19% and the Cerebral edema (MCAO rats; [8]) was 1.64 ± 3.36%. The Infarct volume (MCAO rats; [8]) was 23.56 ± 5.29%, the “Inhibition rate of cerebral edema” value (MCAO rats; [8]) was 82.57% and the “Inhibition rate of infarct volume” value (MCAO rats; [8]) was 52.51%. For the same compound, the Cerebral edema (MCAO rats; [9]) was 5.94 ± 2.45%, the Infarct volume (MCAO rats; [9]) was 29.98 ± 4.99% and the “Inhibition rate of cerebral edema” value (MCAO rats; [9]) was 38.82%. For the same compound, the “Inhibition rate of infarct volume” value (MCAO rats; [9]) was 39.06%, the Cerebral edema (MCAO rats; [10]) was 2.01 ± 2.91% and the Infarct volume (MCAO rats; [10]) was 19.83 ± 3.95%. For the same compound, the “Inhibition rate of cerebral edema” value (MCAO rats; [10]) was 79.34%, the “Inhibition rate of infarct volume” value (MCAO rats; [10]) was 59.69% and the Cerebral edema (MCAO rats; [11]) was 2.08 ± 4.58%. For the same compound, the Infarct volume (MCAO rats; [11]) was 17.71 ± 4.65%, the “Inhibition rate of cerebral edema” value (MCAO rats; [11]) was 78.57% and the “Inhibition rate of infarct volume” value (MCAO rats; [11]) was 64.00%. For the same compound, the “Effects of improving cerebral infarction, cerebral edema and neurological function compared with NBP (5 mg/kg)” value (MCAO rats; low-dose 5 mg/kg iv, at reperfusion or 2 h after) was “no significant difference”, the “Improving the neurological function compared with NBP (5 mg/kg)” value (MCAO rats; middle and high doses 10, 20 mg/kg iv) was “equivalent to NBP (5 mg/kg)” and the IC50 [1, 4] was 340 ± 40 µM. It also gave an IC50 [2, 5] of 980 ± 210 µM.

With `CCCCC(OC(C)=O)c1ccccc1C(=O)O.N=C(N)NCCC[C@H](N)C(=O)O` (racemic) [I1, L-Arginine (R/S)-2-(1-Acetoxy-n-Pentyl) Benzoate] the Cerebral edema (MCAO rats; [12]) was 4.97 ± 3.30%, the Infarct volume (MCAO rats; [12]) was 16.11 ± 2.74% and the “Inhibition rate of cerebral edema” value (MCAO rats; [12]) was 69.00%. The “Inhibition rate of infarct volume” value (MCAO rats; [12]) was 61.50%, the IC50 [1, 4] was 180 ± 30 µM and the “Dry weight of thrombus” value [3] was 7.64 ± 0.40. For the same compound, the “Wet weight of thrombus” value [3] was 25.81 ± 2.20**^, the “Inhibition rate (dry weight of thrombus)” value ([3]; vs model group) was 23.94% and the “Inhibition rate (wet weight of thrombus)” value ([3]; vs model group) was 28.72%. For the same compound, the IC50 [2, 5] was 740 ± 90 µM.

Compound `CCCCC(OC(=O)CC)c1ccccc1C(=O)O` (racemic) [I2, L-Arginine (R/S)-2-(1-Propionyloxy-n-Pentyl) Benzoate] has an IC50 [1, 13] of 190 ± 20 µM and an IC50 [2, 14] of 650 ± 40 µM.

`CCCCC(OC(=O)CCC)c1ccccc1C(=O)O` (racemic) [I3, L-Arginine (R/S)-2-(1-N-Butyryloxy-n-Pentyl) Benzoate] gave an IC50 [1, 13] of 520 ± 30 µM and an IC50 [2, 14] of 1260 ± 70 µM.

With `CCCCC(OC(=O)c1ccccc1)c1ccccc1C(=O)O` (racemic) [I4, L-Arginine (R/S)-2-(1-Benzoyloxy-n-Pentyl) Benzoate] the IC50 [1, 4] was 170 ± 70 µM and the IC50 [2, 5] was 820 ± 50 µM.

In the case of `CCCCC(OC(C)=O)c1ccccc1C(=O)O` (racemic) [I5, L-Lysine (R/S)-2-(1-Acetoxy-n-Pentyl) Benzoate], the IC50 [1, 13] is reported as 460 ± 30 µM and the IC50 [2, 14] is reported as 1150 ± 80 µM.

In the case of `CCCCC(OC(C)=O)c1ccccc1C(=O)O.N[C@@H](Cc1c[nH]cn1)C(=O)O` (racemic) [I6, L-Histidine (R/S)-2-(1-Acetoxy-n-Pentyl) Benzoate], the IC50 [1, 4] is reported as 140 ± 10 µM and the IC50 [2, 5] is reported as 770 ± 50 µM.

`CCCCC(OC(C)=O)c1ccccc1C(=O)O.N=C(N)NN` (racemic) [I7, Aminoguanidine (R/S)-2-(1-Acetoxy-n-Pentyl) Benzoate] was tested, and the IC50 [1, 4] was 280 ± 70 µM and the IC50 [2, 5] was 1180 ± 60 µM.

`CCCC[C@@H](OC(C)=O)c1ccccc1C(=O)O` [(R)-APB, (R)-2-(1-acetoxy-n-pentyl)benzoic acid] showed an IC50 [1, 13] of 190 ± 20 µM and an IC50 [2, 14] of 760 ± 70 µM.

Compound `CCCC[C@H]1OC(=O)c2ccccc21` [(R)-NBP, (R)-butylphthalide] has an IC50 [1, 4] of 660 ± 70 µM and an IC50 [2, 5] of 1600 ± 150 µM.

In the case of `CC1=NN(c2ccccc2)C(=O)C1` [Edaravone], the Cerebral edema (MCAO rats; [12]) is reported as 4.49 ± 4.84%, the Infarct volume (MCAO rats; [12]) is reported as 14.29 ± 2.58% and the inhibition at 10 mg/kg/day (MCAO rats; [15]) is reported as 72%. The inhibition at 10 mg/kg/day (MCAO rats; [16]) was 65.8%, the “Dry weight of thrombus” value [3] was 8.23 ± 0.53 and the “Wet weight of thrombus” value [3] was 24.95 ± 1.20. For the same compound, the inhibition at 10 mg/kg/day [3, 17] was 18.1% and the inhibition at 10 mg/kg/day [3, 18] was 31.1%.

For `CCCC[C@@H](OC(C)=O)c1ccccc1C(=O)O` [I1r, L-Arginine (R)-2-(1-Acetoxy-n-Pentyl) Benzoate], the Cerebral edema (MCAO rats; [12]) was 10.72 ± 4.19%, the Infarct volume (MCAO rats; [12]) was 20.14 ± 2.95% and the inhibition at 10 mg/kg/day (MCAO rats; [15]) was 33.2%. For the same compound, the inhibition at 10 mg/kg/day (MCAO rats; [16]) was 51.9%, the IC50 [1, 4] was 180 ± 30 µM and the “Dry weight of thrombus” value [3] was 8.51 ± 0.18. For the same compound, the inhibition at 10 mg/kg/day [3, 17] was 15.2%, the inhibition at 10 mg/kg/day [3, 18] was 18.4% and the IC50 [2, 5] was 730 ± 70 µM.

Compound `CCCC[C@@H](OC(C)=O)c1ccccc1C(=O)O.N=C(N)NN` [I7r, Aminoguanidine (R)-2-(1-Acetoxy-n-Pentyl) Benzoate] has an IC50 [1, 4] of 210 ± 10 µM and an IC50 [2, 5] of 940 ± 50 µM.

`CCCC[C@H](OC(C)=O)c1ccccc1C(=O)O.N=C(N)NN` [I7s, Aminoguanidine (S)-2-(1-Acetoxy-n-Pentyl) Benzoate] was tested, and the Cerebral edema (MCAO rats; [12]) was 12.34 ± 4.57%, the Infarct volume (MCAO rats; [12]) was 24.83 ± 2.02% and the “Inhibition rate of cerebral edema” value (MCAO rats; [12]) was 23.07%. The “Inhibition rate of infarct volume” value (MCAO rats; [12]) was 40.67%, the IC50 [1, 4] was 120 ± 10 µM and the IC50 [2, 5] was 680 ± 30 µM.

Work on `N=C(N)NCCC[C@H](N)C(=O)O` [L-arginine] yielded an IC50 [1, 13] of 5130 ± 650 µM and an IC50 [2, 14] of 5860 ± 690 µM.
